Assay [1] concerns the target T1, Caspase-1 (Homo sapiens, UniProt P29466).
T1 sequence (P29466 120-297 limits assumed): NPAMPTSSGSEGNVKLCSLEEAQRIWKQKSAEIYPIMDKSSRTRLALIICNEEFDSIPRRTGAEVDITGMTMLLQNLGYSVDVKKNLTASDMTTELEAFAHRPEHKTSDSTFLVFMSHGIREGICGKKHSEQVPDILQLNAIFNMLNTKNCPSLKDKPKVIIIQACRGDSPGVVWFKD
T1 sequence (P29466 317-404 limits assumed): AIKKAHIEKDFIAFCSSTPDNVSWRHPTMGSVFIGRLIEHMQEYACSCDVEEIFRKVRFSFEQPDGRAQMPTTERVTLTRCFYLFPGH
In words: Caspase-1 enzyme inhibition (Ki). The settings on record: substrate Suc-YVAD-pNA 80 μM, 37° C., pH 7.5. In kind it is biochemical. In short, it runs like this: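 Ki obtained by fitting rate versus inhibitor concentration to the Morrison tight-binding equation for competitive inhibitors, with pNA release read at 405 nm at 37 °C. Substrate Suc-YVAD-pNA (80 μM final) added after 15 min enzyme–inhibitor preincubation in Tris pH 7.5 buffer with DTT and CHAPS.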

In assay [2] the test system is Human Peripheral Blood Mononuclear Cells (PBMC), mature IL-1β. The experiment in a line: PBMC cell assay: IL-1β assay with human peripheral blood mononuclear cells. In kind it is cell-based. The settings on record: LPS-stimulated human PBMC, mature IL-1β in supernatant by ELISA. In short, it runs like this: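 Donor PBMC (suspension at 6×10^6 cells/ml) or adherent-enriched monocytes were stimulated with 5 ng/ml LPS (final) alongside 5–6 compound dilutions bracketing the ICE Ki, at 0.1% DMSO final, for 16–18 hr at 37° C, 5% CO2. Mature IL-1β in supernatants was measured by ELISA; IC50 was calculated relative to LPS-only controls.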

The test system of assay [3] is Human whole blood, IL-1β production. The experiment in a line: Whole blood assay for IL-1β production. The settings on record: LPS-stimulated whole blood, IL-1β by ELISA. In kind it is cell-based. In short, it runs like this:
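LPS-stimulated (5.0 ng/ml final) human whole blood incubated with test compound in saline (or plasma/PBS-5% DMSO for hydrophobic compounds) at 30° C for 16-18 hr. Plasma IL-1β then measured by ELISA at 1:200 dilution, against no-LPS, no-inhibitor and vehicle controls.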

Where a SMILES comes first, the peptide text is derived from it. [ ]: non-standard residue; d: D form. The star is where a group is joined. Aze = O=C(O)[C@@H]1CCN1; Bz = O=C(c1ccccc1)*

In general, Ki refers to the dissociation constant of the complex between target and ligand, obtained from inhibition or displacement. A lower Ki goes with higher affinity. A word on the IC50: it is the concentration that inhibits the measured activity by half. Read a low IC50 as greater potency in that assay. With `CC[C@H](NC(=O)c1nccc2ccccc12)C(=O)N1CCC[C@H]1C(=O)N[C@H](C=O)CC(=O)O` [Example 20e], in assay [1], the Ki was below 10 nM. Also, the IC50 in assay [2] lay in the range of 1000 to 2000 nM; in assay [3] it was 2500 to 7500 nM.
In the same order, the values of `CCC(C)[C@H](NC(=O)c1cc(Cl)c(O)c(Cl)c1)C(=O)N1CCC[C@H]1C(=O)N[C@H](C=O)CC(=O)O` (stereo partly drawn) [Example 20k] are below 10 nM, below 500 nM and below 2500 nM.
Molecule `C[C@@H](O)[C@H](NC(=O)c1cc(Cl)c(O)c(Cl)c1)C(=O)N1CCC[C@H]1C(=O)N[C@H](C=O)CC(=O)O` [Example 20l] showed a Ki in assay [1] below 10 nM. The half-maximal inhibitory concentration (IC50) in assay [2] is 500 to 1000 nM; in assay [3], below 2500 nM.
`O=C[C@H](CC(=O)O)NC(=O)[C@@H]1CCCN1C(=O)[C@H](Cc1cccnc1)NC(=O)c1cc(Cl)c(O)c(Cl)c1` [Example 20n] had a Ki in assay [1] below 10 nM. In addition, the IC50 in assay [2] is 500 to 1000 nM; in assay [3], below 2500 nM.
In assay [1], `CSC[C@H](NC(=O)c1cc(Cl)c(O)c(Cl)c1)C(=O)N1CCC[C@H]1C(=O)N[C@H](C=O)CC(=O)O` [Example 20o] gave a Ki below 10 nM. In addition, the IC50 is below 500 nM in assay [2] and below 2500 nM in assay [3].
In the same order, the values of `CS(=O)(=O)CC[C@H](NC(=O)c1cc(Cl)c(O)c(Cl)c1)C(=O)N1CCC[C@H]1C(=O)N[C@H](C=O)CC(=O)O` [Example 20p, 3-({1-[2-(3,5-dichloro-4-hydroxy-benizoylamino)-4-methanesulfonyl-butyryl]-pyrrolidine-2-carbonyl}-amino)-4-oxo-butyric acid] are below 10 nM, below 500 nM and below 2500 nM.
In the same order, the values of `CCC(C)[C@H](NC(=O)c1ccc(N)c(Cl)c1)C(=O)N1CCC[C@H]1C(=O)N[C@H](C=O)CC(=O)O` (stereo partly drawn) [Example 20q] are 10 to 1000 nM, 500 to 1000 nM and above 7500 nM.
In the same order, the values of `CS(=O)(=O)C[C@H](NC(=O)c1nccc2ccccc12)C(=O)N1CCC[C@H]1C(=O)N[C@H](C=O)CC(=O)O` [Example 20r, 3-[(1-{2-[(isoquinoline-1-carbonyl)-amino]-3-methanesulfonyl-propionyl}-pyrrolidine-2-carbonyl)-amino]-4-oxo-butyric acid] are 10 to 1000 nM, 500 to 1000 nM and 2500 to 7500 nM.
As for `CS(=O)(=O)CC(NC(=O)c1cc(Cl)c(O)c(Cl)c1)C(=O)N1CCCC1C(=O)NC(C=O)CC(=O)O` (stereo not drawn) [Example 20s, 3-({1-[2-(3,5-dichloro-4-hydroxy-benzoylamino)-3-methanesulfonyl-propionyl]-pyrrolidine-2-carbonyl}-amino)-4-oxo-butyric acid], the Ki in assay [1] is below 10 nM. Also, the IC50 in assay [2] was 1000 to 2000 nM; in assay [3] it was below 2500 nM.
In the same order, the values of `CS(=O)(=O)C[C@H](NC(=O)c1ccc(N)c(Cl)c1)C(=O)N1CCC[C@H]1C(=O)N[C@H](C=O)CC(=O)O` [Example 20t] are 10 to 1000 nM, 500 to 1000 nM and below 2500 nM.
In the same order, the values of `CC(NC(=O)c1ccc(N)c(Cl)c1)C(=O)N1N=CC(C)C1C(=O)NC(C=O)CC(=O)O` (stereo not drawn) [Example 23g, 3-({2-[2-(4-Amino-3-chloro-benzoylamino)-propionyl]-4-methyl-3,4-dihydro-2H-pyrazole-3-carbonyl}-amino)-4-oxo-butyric acid] are below 10 nM, 1000 to 2000 nM and below 2500 nM.
In the same order, the values of `COC1CC(C(=O)NC(C=O)CC(=O)O)N(C(=O)C(C)NC(=O)c2ccc(N)c(Cl)c2)C1` (stereo not drawn) [Example 23i, 3-({1-[2-(4-amino-3-chloro-benzoylamino)-propionyl]-4-methoxy-pyrrolidine-2-carbonyl}-amino)-4-oxo-butyric acid] are 10 to 1000 nM, below 500 nM and 2500 to 7500 nM.
For the molecule `CC(C)[C@H](NC(=O)c1ccccc1)C(=O)N1CC[C@H]1C(=O)N[C@H](C=O)CC(=O)O` [Example 24d] (Bz-Val-[Aze]-Asp-aldehyde), in assay [1], the Ki was in the range of 10 to 1000 nM. For the same molecule, the IC50 was 500 to 1000 nM in assay [2] and 2500 to 7500 nM in assay [3].
In the same order, the values of `C[C@H](NC(=O)c1nccc2ccccc12)C(=O)N1CCCC[C@H]1C(=O)N[C@H](C=O)CC(=O)O` [Example 25a] are below 10 nM, below 500 nM and 2500 to 7500 nM.
In the same order, the values of `CC(C)[C@H](NC(=O)c1nccc2ccccc12)C(=O)N1CCCC[C@H]1C(=O)N[C@H](C=O)CC(=O)O` [Example 25b] are below 10 nM, 500 to 1000 nM and 2500 to 7500 nM.
In the same order, the values of `CC(C)(C)[C@H](NC(=O)c1nccc2ccccc12)C(=O)N1CCCC[C@H]1C(=O)N[C@H](C=O)CC(=O)O` [Example 25c] are below 10 nM, 500 to 1000 nM and 2500 to 7500 nM.
On to `COc1ccc(C(=O)N[C@H](C(=O)N2C3CCCCC3C[C@H]2C(=O)N[C@H](C=O)CC(=O)O)C(C)C)cc1` (stereo partly drawn) [Example 26d], for which the Ki in assay [1] was below 10 nM. In addition, the IC50 in assay [2] was 500 to 1000 nM; in assay [3] it was below 2500 nM.
On to `CC(C)[C@H](NC(=O)c1nccc2ccccc12)C(=O)N1C[C@H](c2ccccc2)C[C@H]1C(=O)N[C@H](C=O)CC(=O)O` [Example 26h], for which, in assay [1], the Ki was below 10 nM. Also, the figures for the half-inhibitory concentration (IC50) in assay [2] and in assay [3] were below 500 nM and below 2500 nM, respectively.
In the same order, the values of `CC(C)[C@H](NC(=O)c1nccc2ccccc12)C(=O)N1CSC(C)(C)[C@H]1C(=O)N[C@H](C=O)CC(=O)O` [Example 28c] are below 10 nM, 500 to 1000 nM and above 7500 nM.
In the same order, the values of `C[C@H](NC(=O)c1nccc2ccccc12)C(=O)N[C@@H](C)C(=O)N[C@H](C=O)CC(=O)O` [Example 29c] are below 10 nM, 500 to 1000 nM and below 2500 nM.
In the same order, the values of `C[C@H](NC(=O)c1cccc2ccccc12)C(=O)N[C@@H](C)C(=O)N[C@H](C=O)CC(=O)O` [Example 29d] are below 10 nM, 500 to 1000 nM and below 2500 nM.
In the case of `Cc1cc(C(=O)N[C@H](C(=O)N[C@@H](C)C(=O)N[C@H](C=O)CC(=O)O)C(C)C)cc(C)c1O` [Example 29e], in assay [1], the Ki is below 10 nM. In addition, the IC50 in assay [2] is below 500 nM; in assay [3], below 2500 nM.
In the same order, the values of `Cc1cc(C(=O)N[C@@H](C)C(=O)N[C@@H](C)C(=O)N[C@H](C=O)CC(=O)O)cc(C)c1O` [Example 29h] are below 10 nM, below 500 nM and below 2500 nM.
In the same order, the values of `CC(C)[C@H](NC(=O)c1cc2ccccc2[nH]1)C(=O)N[C@@H](C)C(=O)N[C@H](C=O)CC(=O)O` [Example 29i] are below 10 nM, below 500 nM and below 2500 nM.
In the same order, the values of `C[C@H](NC(=O)[C@@H](NC(=O)c1cc2ccccc2[nH]1)C(C)(C)C)C(=O)N[C@H](C=O)CC(=O)O` [Example 29j] are below 10 nM, 500 to 1000 nM and below 2500 nM.
Consider `C[C@H](NC(=O)[C@@H](NC(=O)c1cccc2ccccc12)C(C)(C)C)C(=O)N[C@H](C=O)CC(=O)O` [Example 29k], for which the Ki in assay [1] is below 10 nM. Further, the results for the IC50 in assay [2] and in assay [3] were below 500 nM and below 2500 nM, respectively.
In the same order, the values of `CC(C)[C@H](NC(=O)c1ccc(O)cc1)C(=O)N[C@@H](C)C(=O)N[C@H](C=O)CC(=O)O` [Example 29l] are 10 to 1000 nM, 500 to 1000 nM and below 2500 nM.
With `CC(=O)NC(C(=O)N1N=C(C(C)(C)C)SC1C(=O)NC(C=O)CC(=O)O)C(C)C` (stereo not drawn) [Example 42, 3-{[3-(2-acetylamino-3-methyl-butyryl)-5-tert-butyl-2,3-dihydro-[1,3,4]thiadiazole-2-carbonyl]-amino)-4-oxo-butyric acid], the Ki in assay [1] lay within 10 to 1000 nM. Besides, the figures for the concentration for half-maximal inhibition (IC50) in assay [2] and in assay [3] were above 2000 nM and 2500 to 7500 nM, respectively.
In the same order, the values of `CC(C)C(NC(=O)c1ccc(N)c(Cl)c1)C(=O)N1CCCC1C(=O)NC(C=O)CC(=O)O` (stereo not drawn) [Example 61, 3-((1-[2-(4-Amino-3-chloro-benzoylamino)-3-methyl-butyryl]-pyrrolidine-2-carbonyl}-amino)-4-oxo-butyric acid] are below 10 nM, 500 to 1000 nM and below 2500 nM.
In the same order, the values of `CC(C)(C)[C@H](NC(=O)c1ccc(N)c(Cl)c1)C(=O)N1CCCC1C(=O)N[C@H](C=O)CC(=O)O` (stereo partly drawn) [Example 73, 3-({-[2-(4-Amino-3-chloro-benzoylamino)-3,3-dimethyl-butyryl]-pyrrolidine-2-carbonyl}-amino)-4-oxo-butyric acid] are below 10 nM, 500 to 1000 nM and below 2500 nM.
